The text below walks through data of patent US10383881B2, “1,5-dihydro-2H-pyrrol-2-one compounds and methods of using same” (Frequency Therapeutics, Inc., priority 2016, dated 2019).

Test [1] concerns Wnt signaling pathway, TCF/LEF reporter-HEK293 Recombinant cell lines. The test is described as follows: Wnt signaling pathway activation in HEK293 cells (TCF/LEF reporter, luciferase). Type of test: cell-based. The following applies: Homo sapiens, incubated overnight, read-out: Potency. As to the method:
Assay: Wnt Signaling Pathway Activation in HEK293 Cells. Materials:
TCF/LEF reporter-HEK293 Recombinant cell lines
One-Step Luciferase Assay System
The assay was performed using TCF/LEF reporter-HEK293 Recombinant cell lines
Plate 32,000 TCF/LEF reporter-HEK293 Recombinant cells/well in a 96-well plate (volume=90 μL). The compounds were diluted in the thawing medium 1 containing 1% DMSO, and add 10 μL to each well (0.1% DMSO at final). The cells were incubated for overnight at 37° C. in 5% CO2 followed by adding 100 μL of One-Step Luciferase Assay System to each well. Plate was incubated for 30 min at room temperature in a darkroom.
Luminescence signal was measured using a BioTek Synergy 2 microplate reader.
Wnt signaling pathway activation assays were performed in triplicates at each concentration. The luminescence data were analyzed using the computer software, Graphpad Prism. The luminescence intensity in the absence of Compounds (Luc) was defined the minimum activity and the signal in the presence of the highest concentration of the Compound was defined as the maximum activity. Signal from the wells containing medium only was defined as background. […]

Another test deals with recombinant human GSK3α (Homo sapiens, UniProt P49840). The test is described as follows: In vitro enzymatic assay for inhibition of GSK3α (Kinase-Glo Max luminescence). The following applies: 10 uM ATP, 0.1 mg/ml GSKtide, 30° C. for 40 minutes; read-out: Potency GSK-3alpha. Format: biochemical. As to the method:
(§1) Enzymatic activities using recombinant human GSK3 using an in vitro enzymatic assay for inhibition GSK3α and GSK3β.
(§2) The assay was performed using Kinase-Glo Max luminescence kinase assay kit (Promega). It measures kinase activity by quantitating the amount of ATP remaining in solution following a kinase reaction. The luminescent signal from the assay is correlated with the amount of ATP present and is inversely correlated with the amount of kinase activity. The compounds were diluted in 10% DMSO and 5 μl of the dilution was added to a 50 μl reaction so that the final concentration of DMSO is 1% in all of reactions. The enzymatic reactions were conducted at 30° C. for 40 minutes. The 50 μl reaction mixture contains 40 mM Tris, pH 7.4, 10 mM MgCl2, 0.1 mg/ml BSA, 2 mM DTT, 0.1 mg/ml GSKtide substrate, 10 uM ATP and GSK3. After the enzymatic reaction, 50 μl of Kinase-Glo Max Luminescence kinase assay solution (Promega) was added to each reaction and incubate the plate for 15 minutes at room temperature. Luminescence signal was measured using a BioTek Synergy 2 microplate reader.
(§3) Kinase activity assays were performed in duplicate at each concentration. The luminescence data were analyzed using the computer software, Graphpad Prism. The difference between luminescence intensities in the absence of Kinase (Lut) and in the presence of Kinase (Luc) was defined as 100% activity (Lut−Luc). […]
In general terms: Kinase-Glo reads ATP consumption through a luciferase reaction.

The next test addresses recombinant human GSK3β (Homo sapiens, UniProt P49841). The test is described as follows: In vitro enzymatic assay for inhibition of GSK3β (Kinase-Glo Max luminescence). The following applies: 10 uM ATP, 0.1 mg/ml GSKtide, 30° C. for 40 minutes; read-out: Potency GSK-3beta. Format: biochemical. As to the method:
as §1, §2, §3

The subject of a further test is Lgr5-positive cells. The test is described as follows: Expansion of Lgr5-positive cochlear cells from Lgr5-EGFP-IRES-Cre-ER mice (flow cytometry for Lgr5-GFP). Type of test: cell-based, mouse. Particulars: 10 days (D10) in culture; for Potency: Lgr5-positive cell expansion; for % of Cells: percentage of GFP-positive (Lgr5-GFP) cells. As to the method: Lgr5-EGFP-IRES-Cre-ER mice (Barker et al., 2007) (http://jaxmice.jax.org/strain/008875.html) are used to analyze the effects of small molecules on cochlear stem cell expansion.
Isolation of stem cells from the inner ear: All animal studies are conducted under an approved institutional protocol according to National Institutes of Health guidelines. For experiments with neonatal mice (postnatal days 1-3), the cochleae are dissected in HBSS and the organ of Corti are separated from the stria vascularis and the modiolus. The organs of Corti are then treated with Cell Recovery Solution (Corning) for 1 h to separate cochlear epithelium from the underlying mesenchyme. Epithelia are then collected and treated with TrypLE (Life Technologies) for 15-20 minutes at 37° C. Single cells obtained by mechanical trituration are filtered (40 μm) and suspended in Matrigel (Corning) for 3D culture.
Cells are cultured in a 1:1 mixture of DMEM and F12, supplemented with Glutamax (GIBCO), N2, B27 (Invitrogen), EGF (50 ng/ml; Chemicon), bFGF (50 ng/ml; Chemicon), IGF1 (50 ng/ml; Chemicon) and the composition provided herein. Media are changed every other day.
Lgr5-positive cells are quantified after 10 days (D10) in culture in multiple conditions. Cell colonies are dissociated into single cells using TrypLE (Gibco). The cells are then stained with propidium iodide (PI) and are analyzed using a flow cytometer for Lgr5-GFP expression. The number of GFP-positive cells and the percentage of GFP-positive cells are quantified.
Atoh1-nGFP-positive cells are quantified at day 0 (D0) and day 10 (D10) of differentiation treatment to determine the number of hair cells that have differentiated. Cell colonies are incubated in Cell Recovery Solution to release the colonies from Matrigel and dissociated into single cells using TrypLE. The total number and percentage of GFP-positive cells are quantified using a flow cytometer for multiple culture conditions. ANOVA is used to compare means across conditions, and the two-tailed Student's T-test is used to compare each condition to the treatment with the highest yield.
On the technique in general: In flow cytometry, cells or beads pass a laser one at a time.

Sequence of recombinant human GSK3β (P49841 whole entry): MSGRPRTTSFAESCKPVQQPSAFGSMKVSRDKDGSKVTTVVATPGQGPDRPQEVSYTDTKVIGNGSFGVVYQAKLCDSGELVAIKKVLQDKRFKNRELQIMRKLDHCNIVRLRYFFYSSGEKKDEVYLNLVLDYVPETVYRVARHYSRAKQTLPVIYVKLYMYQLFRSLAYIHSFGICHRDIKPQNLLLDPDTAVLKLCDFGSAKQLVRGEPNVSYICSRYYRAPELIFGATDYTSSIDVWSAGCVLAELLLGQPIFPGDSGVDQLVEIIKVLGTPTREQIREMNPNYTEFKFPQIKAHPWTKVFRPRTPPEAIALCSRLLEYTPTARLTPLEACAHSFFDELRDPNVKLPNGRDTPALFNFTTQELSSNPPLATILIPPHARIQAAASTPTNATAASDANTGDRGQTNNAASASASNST
Sequence of recombinant human GSK3α (P49840 whole entry): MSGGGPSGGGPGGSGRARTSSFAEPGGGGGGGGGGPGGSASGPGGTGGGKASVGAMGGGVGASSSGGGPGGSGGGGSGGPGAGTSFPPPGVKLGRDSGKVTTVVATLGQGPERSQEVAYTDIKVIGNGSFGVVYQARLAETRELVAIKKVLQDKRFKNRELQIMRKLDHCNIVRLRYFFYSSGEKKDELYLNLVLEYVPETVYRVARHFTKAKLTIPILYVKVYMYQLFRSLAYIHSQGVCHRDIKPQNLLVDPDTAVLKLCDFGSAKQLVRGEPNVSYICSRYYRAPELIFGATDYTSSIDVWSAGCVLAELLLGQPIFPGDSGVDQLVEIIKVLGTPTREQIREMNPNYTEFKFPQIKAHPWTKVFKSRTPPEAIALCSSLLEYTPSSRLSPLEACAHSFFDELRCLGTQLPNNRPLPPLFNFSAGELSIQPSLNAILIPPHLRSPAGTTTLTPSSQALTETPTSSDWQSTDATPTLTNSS

Take `O=C1NCC(c2cnc3ccccn23)=C1c1cn2c3c(cc(F)cc13)CN(C(=O)N1CCCCC1)CC2` [Compound I-49]: in test [1], the EC50 is under 10 nM. Moreover, the IC50 on recombinant human GSK3α is 8.2 nM. Also, the IC50 at recombinant human GSK3β amounted to 8.3 nM. In the test with Lgr5-positive cells, the Potency is reported as 333.3 nM and the “% of Cells” value is 5.5%.

`O=C1NCC(c2cn3c4c(cc(F)cc24)CN(C(=O)N2CCCCC2)CC3)=C1c1cnc2ccccn12` [Compound I-4]: in test [1], the EC50 is 60 nM. On recombinant human GSK3α, the IC50 amounted to 15.6 nM. Also, on recombinant human GSK3β, the IC50 is 22 nM. In the test with Lgr5-positive cells, the Potency amounted to 333.3 nM and the “% of Cells” value is given as 8.3%.
